Source: patent publication US20260015352A1, “METHYLTRANSFERASE INHIBITOR AND USE THEREOF” (CYTOSINLAB THERAPEUTICS CO., LTD., priority 2022, published 2026)

Tested on: G401 cells
Assay: G401 ELISA test
Type: cell-based
Settings: Homo sapiens, G-401; G401 cells treated with compounds for 72 hours; ELISA detecting K27 and H3; read-out: G401_ELISA IC50
Protocol: • Plate Reader: Envision (Perkinelmner); plate shaker: IKA MTS 2/4; plate Washer: BioTek microplate wisher 405 select; Cell counter: Counterstar (Ruiyu-biotech); Cell culture incubator: MCO-15AC (ThermoFisher); Pipette: BioHit Multichannel. Pipette: 0.2-10 μL, 10-300 μL, 50-1200 μL; Centrifuge: Thermo Centrifuge ST 40R; Pure water system: Millipore Milli-Q Reference system; Refrigerator: Haier −80 degree, −20 degree, and 4-degree refrigerators; cell cryopreservation box: Mr. Frosty™ Gradient Cooling Box Cat #5100-0001
• McCoys 5A (Modified) culture medium (ATCC); FBS (Gibco); 0.25% Trypsin/EDTA (Gibco); PBS (Hyclone); Penicillin/Streptomycin(100×) (Gibco); DMSO (Sigma); 384 cell culture plate (Corning); 384 detection plate (Greiner); 96 well plate (compound dilution) (Haimen, Qunchao); T75 Cell Culture Bottle (Corning)
G401 cells were seeded in a 384-well cell culture plate and incubated overnight at 37° C. in a 5% CO2 cell culture incubator, after which the cells were treated with compounds of different concentrations for 72 hours. The 384-well cell culture plate was taken out and upside down in a centrifuge to centrifugeat 300 rpm for 1 minute. After centrifugation, the 384-well cell culture plate was washed twice with PBS, added with lysis solution and lysed for 60 minutes. Then neutralization buffer was added for mixing and incubation was continued for 30 minutes. 20 ul (for detecting K27) and 10 ul (for detecting H3) of cell lysate were extracted from the 384-well cell culture plate and transferred to a 384 ELISA detection plate and incubate overnight at 4° C. The next day, the 384 ELISA plate was taken out and washed 5 times with TBST in a microplate washer. Then, the plate was added with a blocking solution and sealed at room temperature for 1 hour. The blocking solution was discarded and the primary antibody was added and then the plate was incubated at room temperature for 1 hour. After incubation, the plate was washed with TBST 5 times in a microplate washer, then added with secondary antibody and incubated at room temperature for 1 hour. After incubation, the plate was washed with TBST 5 times in a microplate washer, and finally added with color developer for color development. The plate was read with Envision plate reader. The obtained data was converted into inhibition rate using the following calculation method: % Inhibition rate=100−100*(compound absorbance−positive control absorbance)/(negative control absorbance−positive control absorbance), and then the inhibition rate data was subjected to curve fitting using the “logarithmic (inhibitor) and reaction-variable slope (four parameters)” model in GraphPad Prism 5 software.
The inhibition rate of the compound was calculated as follows: […]
The compounds of the present invention were tested according to the above experimental method, and some results were shown in Table 3. The test results were classified by A, B, and C, wherein A represents IC50≤0.1 uM; B represents 0.1 uM<IC50≤1 uM; C represents IC50>1 uM

Structure (SMILES)	IC50 [nM]
COc1nccc2ccc(Nc3ccc([C@@H](C)Nc4ncc(CC(=O)NC5COC5)cn4)cc3)nc12 (single isomer, unassigned) [PA062, 2-(2-((1-(4-((8-methoxy-1,7-naphthyridin-2-yl)amino)phenyl)ethyl)amino)pyrimidin-5-yl) acetic acid N-(oxetan-3-yl) acetamide]	100 to 1000
COc1nccc2ccc(Nc3ccc(CNc4ncc(CNCc5cocn5)cn4)cc3F)nc12 [PA239]	100 to 1000
CNC(=O)C(NC1CS(=O)(=O)C1)c1cnc(N[C@@H](C)C23CCC(Nc4ccc5ccnc(Cl)c5n4)(CC2)CC3)nc1 (stereo partly shown) [PA162]	≤ 100
COc1nccc2ccc(Nc3ccc([C@H](C)Nc4ncc(CC(=O)NCCC#N)cn4)cc3F)nc12 [PA200]	≤ 100
COc1nccc2ccc(Nc3ccc(CNc4ncc([C@H](C)C(=O)NC5COC5)cn4)cc3)nc12 (single isomer, unassigned) [PA042, 2-[2-[[4-[(8-methoxy-1,7-naphthyridin-2-yl)amino]phenyl]methylamino]pyrimidin-5-yl]-N-(oxetan-3-yl) propanamide]	≤ 100
COc1nccc2ccc(Nc3ccc(CNc4ncc(CC(=O)NC5COC5)cn4)c(F)c3)nc12 [PA034]	≤ 100
CC(C(=O)NCCC#N)c1cnc(N[C@@H](C)C23CCC(Nc4ccc5ccnc(Cl)c5n4)(CC2)CC3)nc1 (stereo partly shown) [PA191]	≤ 100
C[C@H](Nc1ncc(CNCCC#N)cn1)C12CCC(Nc3ccc4ccnc(Cl)c4n3)(CC1)CC2 [PA170]	≤ 100
CC(c1cnc(N[C@@H](C)C23CCC(Nc4ccc5ccnc(Cl)c5n4)(CC2)CC3)nc1)N1CCS(=O)(=O)CC1 (stereo partly shown) [PA184]	≤ 100
Cc1ccc2ccc(NC34CCC(C(C)Nc5ncc(CC(=O)NC6COC6)cn5)(CC3)CC4)nc2c1Cl (stereo not shown) [PA183]	≤ 100
CC(C(=O)N(CCC#N)CCC#N)c1cnc(N[C@@H](C)C23CCC(Nc4ccc5ccnc(Cl)c5n4)(CC2)CC3)nc1 (stereo partly shown) [PA202]	≤ 100
COc1nccc2ccc(Nc3ccc([C@H](C)Nc4ncc(N5CC(CC#N)C5)cn4)cc3F)nc12 [PA199]	≤ 100
COc1nccc2cnc(Nc3ccc(CNc4ncc(CC(=O)NC5COC5)cn4)cc3)nc12 [PA254]	> 1000
COc1nccc2ccc(Nc3ccc([C@H](C)Nc4ncc(CC(=O)NC5COC5)cn4)cc3)nc12 [PA061, 2-(2-((1-(4-((8-methoxy-1,7-naphthyridin-2-yl)amino)phenyl)ethyl)amino)pyrimidin-5-yl) acetic acid N-(oxetan-3-yl) acetamide]	≤ 100
COc1nccc2ccc(Nc3ccc([C@H](C)Nc4ncc(CC5CCS(=O)(=O)CC5)cn4)cc3F)nc12 [PA195]	≤ 100
COc1nccc2ccc(Nc3ccc([C@H](C)Nc4ncc([C@@H](C)C(=O)NC5COC5)cn4)cc3F)nc12 [PA225]	100 to 1000
